Earlier results, collected in patent US10300042B2, “Apremilast for the treatment of a liver disease or a liver function abnormality” (Celgene Corporation, priority 2014, dated 2019).

Test system: alanine aminotransferase and/or aspartate aminotransferase
Details: animal models and human studies; cited from earlier work

In the case of CC(=O)CCCCn1c(=O)c2c(ncn2C)n(C)c1=O [Pentoxifylline], the “Liver Function Tests abnormalities (ALT, AST levels)” value is listed as “decreasing levels of alanine aminotransferase and/or aspartate aminotransferase”.
